Source: PubChem BioAssay AID326 (DTP/NCI, 2004)
Values joined by “and” are separate entries in the source; they are usually repeats but may differ in a detail not shown here. Equal entries are not always repeated. Inconclusive results and toxic doses are left out.

Tested on: CD2F1 mice, P388/DHAQ leukemia ip, median survival T/C
Assay: NCI In Vivo Anticancer Drug Screen. Data for tumor model P388 Leukemia resistant to Dihydroxy Anthracenedione; NSC 299195 (intraperitoneal) in CD2F1 (CDF1) mice
Settings: endpoint: median survival time, higher = longer survival
Method: The antitumor activity of compounds was measured in mice bearing transplantable tumors. Survival or tumor size were measured and the results are expressed as the measurement made in the treated group (T) divided by the measurement made in the vehicle treated control group (C). The tumor model used in this assay is P388 Leukemia resistant to Dihydroxy Anthracenedione; NSC 299195 (intraperitoneal) in CD2F1 (CDF1) mice

[1] = dose: 4.32 mg/kg/injection, schedule: Q04DX003 (ip), vehicle: saline
[2] = dose: 7.2 mg/kg/injection, schedule: Q04DX003 (ip), vehicle: saline

`COc1cccc2c1C(=O)c1c(O)c3c(c(O)c1C2=O)C[C@@](O)(C(=O)CO)C[C@@H]3OC1CC(N)C(O)C(C)O1` (some centres undefined) was tested, and the T/C (dose: 0.97 mg/kg/injection, schedule: Q04DX002 (ip), vehicle: saline) was 118 % of control, the T/C (dose: 1.3 mg/kg/injection, schedule: Q04DX002 (ip), vehicle: saline) was 115 % of control and 120 % of control and the T/C (dose: 2.16 mg/kg/injection, schedule: Q04DX002 (ip), vehicle: saline) was 120 % of control. The T/C (dose: 2.7 mg/kg/injection, schedule: Q04DX002 (ip), vehicle: saline) was 119 % of control, the T/C (dose: 3.6 mg/kg/injection, schedule: Q04DX002 (ip), vehicle: saline) was 123 % of control and the T/C (dose: 6.0 mg/kg/injection, schedule: Q04DX002 (ip), vehicle: saline) was 121 % of control. For the same compound, the T/C (dose: 10.0 mg/kg/injection, schedule: Q04DX002 (ip), vehicle: saline) was 102 % of control and 120 % of control.

With `O=C1c2ccccc2C(=O)c2c(NCCNCCO)ccc(NCCNCCO)c21` the T/C (dose: 13.0 mg/kg/injection, schedule: Q04DX003 (ip), vehicle: saline) was 109 % of control, the T/C (dose: 21.6 mg/kg/injection, schedule: Q04DX003 (ip), vehicle: saline) was 120 % of control and the T/C (dose: 36.0 mg/kg/injection, schedule: Q04DX003 (ip), vehicle: saline) was 123 % of control. For the same compound, the T/C (dose: 60.0 mg/kg/injection, schedule: Q04DX003 (ip), vehicle: saline) was 108 % of control.

`CCC1(O)CC2CN(CCc3c([nH]c4ccccc34)C(C(=O)OC)(c3cc4c(cc3OC)N(C)C3C(O)(C(N)=O)C(O)C5(CC)C=CCN6CCC43C65)C2)C1` (centres undefined) (tested in a mixture with another compound) was tested, and the T/C (dose: 0.65 mg/kg/injection, schedule: Q04DX003 (ip), vehicle: clinical formulation) was 173 % of control, the T/C (dose: 1.08 mg/kg/injection, schedule: Q04DX003 (ip), vehicle: clinical formulation) was 182 % of control and the T/C (dose: 1.8 mg/kg/injection, schedule: Q04DX003 (ip), vehicle: clinical formulation) was 208 % of control. For the same compound, the T/C (dose: 3.0 mg/kg/injection, schedule: Q04DX003 (ip), vehicle: clinical formulation) was 87 % of control.

For `COc1c(O)c2c(c3cc(C(=O)N4CCc5c4c(O)c(OC)c4[nH]c(C(=O)N6CC7CC78C6=CC(=O)c6[nH]cc(C)c68)cc54)[nH]c13)CCN2C(N)=O` (centres undefined), the T/C (dose: 0.05 mg/kg/injection, schedule: Q04DX003 (ip), vehicle: DMSO) was 122 % of control, the T/C (dose: 0.09 mg/kg/injection, schedule: Q04DX003 (ip), vehicle: DMSO) was 119 % of control and the T/C (dose: 13.0 micrograms/kg/injection, schedule: Q01DX009 (ip), vehicle: DMSO) was 100 % of control. The T/C (dose: 21.6 micrograms/kg/injection, schedule: Q01DX009 (ip), vehicle: DMSO) was 96 % of control, the T/C (dose: 36.0 micrograms/kg/injection, schedule: Q01DX009 (ip), vehicle: DMSO) was 94 % of control and the T/C (dose: 38.9 micrograms/kg/injection, schedule: Q04DX003 (ip), vehicle: DMSO) was 114 % of control. For the same compound, the T/C (dose: 60.0 micrograms/kg/injection, schedule: Q01DX009 (ip), vehicle: DMSO) was 93 % of control, the T/C (dose: 64.8 micrograms/kg/injection, schedule: Q04DX003 (ip), vehicle: DMSO) was 114 % of control and the T/C (dose: 100.0 micrograms/kg/injection, schedule: Q01DX009 (ip), vehicle: DMSO) was 94 % of control. The T/C (dose: 108.0 micrograms/kg/injection, schedule: Q04DX003 (ip), vehicle: DMSO) was 121 % of control, the T/C (dose: 180.0 micrograms/kg/injection, schedule: Q04DX003 (ip), vehicle: DMSO) was 105 % of control and the T/C (dose: 300.0 micrograms/kg/injection, schedule: Q04DX003 (ip), vehicle: DMSO) was 102 % of control. For the same compound, the T/C (dose: 300.0 micrograms/kg/injection, schedule: Q04DX003 (ip), vehicle: saline) was 100 % of control.

With `CC[C@@]1(O)C[C@H](OC2CC(N(C)C)C(OC3CC(O)C(OC4CCC(=O)C(C)O4)C(C)O3)C(C)O2)c2c(cc3c(c2O)C(=O)c2c(O)ccc(O)c2C3=O)[C@H]1C(=O)OC` (some centres undefined) the T/C (dose: 1.56 mg/kg/injection, schedule: Q04DX003 (ip), vehicle: saline) was 116 % of control, the T/C [1] was 162 % of control and the T/C [2] was 189 % of control and 190 % of control and 220 % of control.

For `CC[C@H]1CN2CCc3cc(OC)c(OC)cc3[C@@H]2C[C@@H]1C[C@H]1NCCc2cc(OC)c(OC)cc21`, the T/C [1] was 111 % of control, the T/C (dose: 5.18 mg/kg/injection, schedule: Q04DX003 (ip), vehicle: saline) was 111 % of control and the T/C [2] was 121 % of control. For the same compound, the T/C (dose: 8.64 mg/kg/injection, schedule: Q04DX003 (ip), vehicle: saline) was 121 % of control, the T/C (dose: 12.0 mg/kg/injection, schedule: Q04DX003 (ip), vehicle: saline) was 121 % of control and the T/C (dose: 14.4 mg/kg/injection, schedule: Q04DX003 (ip), vehicle: saline) was 156 % of control. For the same compound, the T/C (dose: 24.0 mg/kg/injection, schedule: Q04DX003 (ip), vehicle: saline) was 175 % of control and 228 % of control.

With `S=P(N1CC1)(N1CC1)N1CC1` the T/C (dose: 3.24 mg/kg/injection, schedule: Q04DX002 (ip), vehicle: saline) was 103 % of control, the T/C (dose: 5.4 mg/kg/injection, schedule: Q04DX002 (ip), vehicle: saline) was 122 % of control and the T/C (dose: 15.0 mg/kg/injection, schedule: Q04DX002 (ip), vehicle: saline) was 183 % of control.

For `O=C1c2ccccc2C(=O)c2c(NCCNCCO)ccc(O)c21`, the T/C (dose: 19.4 mg/kg/injection, schedule: Q04DX003 (ip), vehicle: saline) was 121 % of control, the T/C (dose: 32.4 mg/kg/injection, schedule: Q04DX003 (ip), vehicle: saline) was 107 % of control and the T/C (dose: 54.0 mg/kg/injection, schedule: Q04DX003 (ip), vehicle: saline) was 90 % of control.

In the case of `C(=N/NC1=NCCN1)/c1c2ccccc2c(/C=N\NC2=NCCN2)c2ccccc12`, the T/C (dose: 5.18 mg/kg/injection, schedule: Q04DX002 (ip), vehicle: saline) is reported as 103 % of control, the T/C (dose: 8.64 mg/kg/injection, schedule: Q04DX002 (ip), vehicle: saline) is reported as 108 % of control and the T/C (dose: 13.0 mg/kg/injection, schedule: Q04DX002 (ip), vehicle: water) is reported as 111 % of control. The T/C (dose: 14.4 mg/kg/injection, schedule: Q04DX002 (ip), vehicle: saline) was 105 % of control, the T/C (dose: 21.6 mg/kg/injection, schedule: Q04DX002 (ip), vehicle: water) was 118 % of control and the T/C (dose: 36.0 mg/kg/injection, schedule: Q04DX002 (ip), vehicle: water) was 111 % of control. For the same compound, the T/C (dose: 40.0 mg/kg/injection, schedule: Q04DX002 (ip), vehicle: saline) was 98 % of control and the T/C (dose: 60.0 mg/kg/injection, schedule: Q04DX002 (ip), vehicle: water) was 109 % of control.

With `NCCCN=c1ccc2c3c1c(O)c1c(O)ccc(=O)c1c3[nH]n2CCNCCO` the T/C (dose: 9.72 mg/kg/injection, schedule: Q04DX002 (ip), vehicle: water) was 124 % of control, the T/C (dose: 27.0 mg/kg/injection, schedule: Q04DX002 (ip), vehicle: water) was 97 % of control and the T/C (dose: 45.0 mg/kg/injection, schedule: Q04DX002 (ip), vehicle: water) was 97 % of control.

`O=NN(CCCl)C(=O)NCCCl` was tested, and the T/C (dose: 5.4 mg/kg/injection, schedule: Q04DX003 (ip), vehicle: saline + alcohol) was 193 % of control, the T/C (dose: 6.48 mg/kg/injection, schedule: Q04DX002 (ip), vehicle: saline + alcohol) was 150 % of control and the T/C (dose: 9.0 mg/kg/injection, schedule: Q04DX003 (ip), vehicle: saline + alcohol) was 319 % of control. For the same compound, the T/C (dose: 10.8 mg/kg/injection, schedule: Q04DX002 (ip), vehicle: saline + alcohol) was 168 % of control and 205 % of control, the T/C (dose: 15.0 mg/kg/injection, schedule: Q04DX003 (ip), vehicle: saline + alcohol) was 463 % of control and the T/C (dose: 18.0 mg/kg/injection, schedule: Q04DX002 (ip), vehicle: saline + alcohol) was 317 % of control and 412 % of control. The T/C (dose: 25.0 mg/kg/injection, schedule: Q04DX003 (ip), vehicle: saline + alcohol) was 463 % of control and the T/C (dose: 30.0 mg/kg/injection, schedule: Q04DX002 (ip), vehicle: saline + alcohol) was 412 % of control and 420 % of control.

`COc1ccc(CCN(C)CCCC(C#N)(c2ccc(OC)c(OC)c2)C(C)C)cc1OC` (centres undefined) was tested, and the T/C (dose: 16.0 mg/kg/injection, schedule: Q03HX004 (ip), vehicle: saline) was 100 % of control and the T/C (dose: 32.0 mg/kg/injection, schedule: Q03HX004 (ip), vehicle: saline) was 103 % of control.

In the case of `CC[C@]1(O)C[C@H]2CN(CCc3c([nH]c4ccccc34)[C@@](C(=O)OC)(c3cc4c(cc3OC)N(C=O)[C@H]3[C@@](O)(C(=O)OC)[C@H](OC(C)=O)[C@]5(CC)C=CCN6CC[C@]43[C@@H]65)C2)C1`, the T/C (dose: 0.43 mg/kg/injection, schedule: Q04DX003 (ip), vehicle: saline) is reported as 160 % of control, the T/C (dose: 0.72 mg/kg/injection, schedule: Q04DX003 (ip), vehicle: saline) is reported as 150 % of control and 158 % of control and 169 % of control and the T/C (dose: 1.2 mg/kg/injection, schedule: Q04DX003 (ip), vehicle: saline) is reported as 161 % of control and 168 % of control and 172 % of control. For the same compound, the T/C (dose: 2.0 mg/kg/injection, schedule: Q04DX003 (ip), vehicle: saline) was 168 % of control and 169 % of control and 195 % of control.
